From patent publication US20160257997A1, “METHODS FOR WHOLE-CELL ANALYSIS OF GRAM-POSITIVE BACTERIA” (AdvanDx, Inc., priority 2009, published 2016)

Tested on: MecA mRNA
Experiment: PNA FISH of MecA mRNA in permeabilized S. aureus (Examples 1-3)
Assay type: cell-based

GCTATCGTGTCACAA (all peptide nucleic acid (PNA); fluorescein label, position not given here; listed as Staphylococcus aureus) [Probe 2, Flu-labeled PNA probe, methicillin-resistance]
fluorescent staining of bacteria (FITC filter) (MRSA 43300, oxacillin-induced, FIG. 1 Slides B-D, Probes 1-5 794 nM combined, Probe 2 750 nM, Probe 6 750 nM): Green fluorescent bacteria were observed | fluorescent staining of bacteria (FITC filter), competition control (MRSA 43300, Probe 2 300 nM in the presence of 16.6-fold excess (5000 nM) of biotin labeled Probe 7, FIG. 1 Slide E): No signal was observed
